# Earlier results as cited in US5965423A, “Human lysophospholipase” (Incyte Pharmaceuticals, Inc., priority 1998, dated 1999).
# Target: T1, monomeric, 24 kD lysophospholipase (LPL) from rat liver (Rattus norvegicus, UniProt P70470)
# T1 construct: isolated a monomeric, 24 kD LPL from rat liver; host or cells: rat liver (tissue-purified enzyme, Sugimoto et al. 1996)
# Details: substrate 1-palmitoyl-glycero-3-phosphocholine; substrate dependence curve sigmoidal
# T1 sequence (P70470 whole entry): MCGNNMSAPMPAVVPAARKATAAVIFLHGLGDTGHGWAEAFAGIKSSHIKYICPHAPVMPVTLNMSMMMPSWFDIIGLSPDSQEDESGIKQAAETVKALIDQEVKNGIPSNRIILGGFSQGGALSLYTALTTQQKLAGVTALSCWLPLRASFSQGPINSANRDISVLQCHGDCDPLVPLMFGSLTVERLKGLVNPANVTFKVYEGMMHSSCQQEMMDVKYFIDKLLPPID
smiles,measurement,value
CCCCCCCCCCCCCCCC(=O)OCC(O)COP(=O)([O-])OCC[N+](C)(C)C (centres unmarked) [1-palmitoyl-glycero-3-phosphocholine],Km,170 µM
same,Vmax,1.55 µM/min/mg
